Test results reported in PMC10245146, “CNS4 causes subtype‐specific changes in agonist efficacy and reversal potential of permeant cations in NMDA receptors” (Pharmacology Research & Perspectives, 2023).
Values joined by “and” are separate entries in the source; they are usually repeats but may differ in a detail not shown here. Equal entries are not always repeated.

Assays:
Assay type in all cases: cell-based
GluN1/2AB receptors = assay: Whole-cell patch-clamp, HEK293T cells expressing recombinant GluN1/2AB; conditions: 100 μM CNS4 applied 4 s before and with 100 μM glutamate + 100 μM glycine; agonist alone −546 ± 32.34 pA; n = 8(4), p = .023
Experimental: Whole‐cell patch‐clamp electrophysiology studies were carried out in HEK‐293T cells expressing recombinant NMDA receptors that lack native functional NMDA receptors.[29], [30], [31] An equal quantity of (1 μg) cDNA for GluN1a, GluN2 subunits were co‐transfected 24‐48 h before patch‐clamp electrophysiology assay. […] Cells were carefully washed before performing experiments and were used for the electrophysiology experiments after 24 to 48 h incubation at 37°C with 5%CO2. The whole‐cell patch‐clamp electrophysiology assay was performed using semi‐automated patch‐clamp equipment, Port‐a‐Patch (Nanion Technologies GmbH). Following are the constituents of various solutions used for patch‐clamp electrophysiology: internal solution ([mM] NaCl 10, EGTA 20, CsF 110, HEPES 10), Mg‐free external (recording) solution ([mM] NaCl 140, KCl 4, CaCl2 2, HEPES 10, D‐GlucoseMonohydrate 5), and Mg‐free seal enhancer solution ([mM] NaCl 80, KCl 3, CaCl2 35, HEPES 10). Nanion NPC chips with […] resistance were used for the HEK‐293T cell recordings.
FIGURE 1 CNS4 sensitizes ambient concentration of agonists in GluN2 subunit dependent manner. […] Statistical significance was calculated from the Wilcoxon matched‐pairs signed rank test, except the comparison between 1/2A & 1/2AB CNS4 with no agonist data, which was done by unpaired t‐test. […]

GluN1/2A NMDA receptors = biological target: T1, GluN1/2A NMDA receptors (UniProt P35439+Q12879); assay: TEVC agonist dose-response, Xenopus oocytes expressing 1/2A
T1 construct: expressed in transfected cells; host or cells: Xenopus oocytes (cRNA injection)
T1 sequence (Q12879 23-1464, other chains not shown): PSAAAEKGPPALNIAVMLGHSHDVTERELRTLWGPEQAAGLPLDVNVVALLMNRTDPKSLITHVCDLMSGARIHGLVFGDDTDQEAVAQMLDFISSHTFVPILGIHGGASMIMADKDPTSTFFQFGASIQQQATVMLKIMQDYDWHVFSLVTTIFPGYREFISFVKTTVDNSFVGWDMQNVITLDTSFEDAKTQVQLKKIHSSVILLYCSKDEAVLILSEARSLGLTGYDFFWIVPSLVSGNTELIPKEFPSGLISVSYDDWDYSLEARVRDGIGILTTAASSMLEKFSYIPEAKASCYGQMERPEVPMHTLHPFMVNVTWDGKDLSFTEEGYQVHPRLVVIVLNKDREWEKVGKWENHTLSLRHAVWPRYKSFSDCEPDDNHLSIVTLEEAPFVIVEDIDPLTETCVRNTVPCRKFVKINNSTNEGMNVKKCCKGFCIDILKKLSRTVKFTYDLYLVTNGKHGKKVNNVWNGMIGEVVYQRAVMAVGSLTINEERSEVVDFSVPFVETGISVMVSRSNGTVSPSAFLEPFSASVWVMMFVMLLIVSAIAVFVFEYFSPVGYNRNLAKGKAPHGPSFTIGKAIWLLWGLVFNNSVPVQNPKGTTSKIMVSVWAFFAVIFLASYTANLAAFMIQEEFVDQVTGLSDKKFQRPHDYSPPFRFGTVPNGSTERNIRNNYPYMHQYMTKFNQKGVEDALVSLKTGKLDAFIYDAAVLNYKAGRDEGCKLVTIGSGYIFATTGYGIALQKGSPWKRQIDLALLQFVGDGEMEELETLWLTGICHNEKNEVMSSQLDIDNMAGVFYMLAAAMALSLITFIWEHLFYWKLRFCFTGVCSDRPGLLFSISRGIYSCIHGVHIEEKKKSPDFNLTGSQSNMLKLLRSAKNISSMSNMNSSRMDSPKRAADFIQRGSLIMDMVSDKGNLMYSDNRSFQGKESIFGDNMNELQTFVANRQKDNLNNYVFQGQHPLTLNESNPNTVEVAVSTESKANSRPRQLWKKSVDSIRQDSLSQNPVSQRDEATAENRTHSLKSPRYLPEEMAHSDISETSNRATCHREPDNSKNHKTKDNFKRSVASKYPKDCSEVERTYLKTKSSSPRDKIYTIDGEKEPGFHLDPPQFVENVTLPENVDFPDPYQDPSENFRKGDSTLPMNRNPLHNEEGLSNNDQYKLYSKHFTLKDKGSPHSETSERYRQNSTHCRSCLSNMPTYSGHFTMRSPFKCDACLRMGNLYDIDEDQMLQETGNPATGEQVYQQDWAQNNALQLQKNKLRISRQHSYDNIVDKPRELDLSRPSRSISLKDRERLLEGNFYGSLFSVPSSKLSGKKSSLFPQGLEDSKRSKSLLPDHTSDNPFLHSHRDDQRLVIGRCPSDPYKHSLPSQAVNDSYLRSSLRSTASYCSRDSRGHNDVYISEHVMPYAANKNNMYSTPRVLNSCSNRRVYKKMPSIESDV
Description: (§1) NMDA receptor constructs: cDNA encoding the NMDA receptor1a subunit (GluN1a) was obtained from Dr. Nakanishi (Kyoto, Japan). cDNA encoding the GluN2B (pci_sepGluN2B), originally developed in the Malinow lab,[33] was purchased from Addgene (cat# 23998), Cambridge, MA. cDNA encoding the GluN2C and GluN2D were purchased from GenScript, New Jersey, USA. Mutated GluN1, 2A and 2B cDNA constructs capable of assembling as GluN1/2A/2B triheteromeric (1/2AB) receptors[34] were obtained from Dr. Paoletti (Laboratoire de Neurobiologie, CNRS). These constructs have been previously tested for 1/2AB receptor activity of GluN1/2A receptor‐selective potentiators.[35] […] Plasmids were linearized with NotI (GluN1a and all five GluN1 mutants) or Avrll (GluN2B), or BstB1 (GluN2C and GluN2D) and transcribed in vitro with T7 (GluN1a, GluN1/2A, GluN2B, GluN2C & GluN2D), and SP6 (GluN1 mutants) RNA polymerase using the mMessage mMachine transcription kits (Invitrogen by Thermo Fisher Scientific).
(§2) Stage IV frog oocytes were obtained from Xenopus‐I, (Ann Arbor, MI, USA). NMDA receptor subunit cRNAs were suspended in nuclease free sterile water. GluN1A, GluN2B, GluN2C, GluN2D and GluN1/2A/2B cRNAs were mixed in a ratio of 1:1–3. 50 nL of the final cRNA mixture was microinjected (40–70 ng total) into the oocyte cytoplasm. Oocytes were incubated in ND‐96 solution at 18°C prior to electrophysiological recordings (2–5 days).
(§3) Electrophysiological responses were measured using a standard two‐microelectrode voltage‐clamp workstation (Warner Instruments model OC‐725C) designed to provide a fast clamp of large cells. The recording buffer contained 116 mM NaCl, 2 mM KCl, 0.3 mM BaCl2, and 5 mM HEPES, pH 7.4. Response magnitude was determined in Xenopus oocytes expressing different NMDA receptor subunits (GluN1/2A, 1/2B, 1/2C, 1/2D, and 1/2A/2B) by the steady plateau response elicited by bath application of different agonist concentrations. […] All data points were obtained from the steady state currents unless stated otherwise. Dose–response relationships were fit to an appropriate curve‐fitting equation using GraphPad Prism‐7. Non‐linear regression was used to calculate EC50, IC50, and fold change or percentage maximal response. Curves were fit using the following equations as performed in the previous studies, [37]: Y=100/1+10^LogEC50−XorY=Bottom+Top−Bottom/1+10^LogEC50−X . Statistical significance was determined at the overall alpha level 0.05, using appropriate statistical methods as described in all figure captions. Technical and biological replicates are explicitly mentioned in each figure legend, as n = X (Y). X represents technical repeats (number of traces) and Y represents biological repeats (number of oocytes or HEK293T cells studied). […]

GluN1/2D NMDA receptors = biological target: T2, GluN1/2D NMDA receptors (UniProt O15399+P35439); assay: TEVC agonist dose-response, Xenopus oocytes expressing 1/2D
T2 construct: host or cells: Xenopus oocytes (cRNA injection)
T2 sequence (O15399 28-1336, other chains not shown): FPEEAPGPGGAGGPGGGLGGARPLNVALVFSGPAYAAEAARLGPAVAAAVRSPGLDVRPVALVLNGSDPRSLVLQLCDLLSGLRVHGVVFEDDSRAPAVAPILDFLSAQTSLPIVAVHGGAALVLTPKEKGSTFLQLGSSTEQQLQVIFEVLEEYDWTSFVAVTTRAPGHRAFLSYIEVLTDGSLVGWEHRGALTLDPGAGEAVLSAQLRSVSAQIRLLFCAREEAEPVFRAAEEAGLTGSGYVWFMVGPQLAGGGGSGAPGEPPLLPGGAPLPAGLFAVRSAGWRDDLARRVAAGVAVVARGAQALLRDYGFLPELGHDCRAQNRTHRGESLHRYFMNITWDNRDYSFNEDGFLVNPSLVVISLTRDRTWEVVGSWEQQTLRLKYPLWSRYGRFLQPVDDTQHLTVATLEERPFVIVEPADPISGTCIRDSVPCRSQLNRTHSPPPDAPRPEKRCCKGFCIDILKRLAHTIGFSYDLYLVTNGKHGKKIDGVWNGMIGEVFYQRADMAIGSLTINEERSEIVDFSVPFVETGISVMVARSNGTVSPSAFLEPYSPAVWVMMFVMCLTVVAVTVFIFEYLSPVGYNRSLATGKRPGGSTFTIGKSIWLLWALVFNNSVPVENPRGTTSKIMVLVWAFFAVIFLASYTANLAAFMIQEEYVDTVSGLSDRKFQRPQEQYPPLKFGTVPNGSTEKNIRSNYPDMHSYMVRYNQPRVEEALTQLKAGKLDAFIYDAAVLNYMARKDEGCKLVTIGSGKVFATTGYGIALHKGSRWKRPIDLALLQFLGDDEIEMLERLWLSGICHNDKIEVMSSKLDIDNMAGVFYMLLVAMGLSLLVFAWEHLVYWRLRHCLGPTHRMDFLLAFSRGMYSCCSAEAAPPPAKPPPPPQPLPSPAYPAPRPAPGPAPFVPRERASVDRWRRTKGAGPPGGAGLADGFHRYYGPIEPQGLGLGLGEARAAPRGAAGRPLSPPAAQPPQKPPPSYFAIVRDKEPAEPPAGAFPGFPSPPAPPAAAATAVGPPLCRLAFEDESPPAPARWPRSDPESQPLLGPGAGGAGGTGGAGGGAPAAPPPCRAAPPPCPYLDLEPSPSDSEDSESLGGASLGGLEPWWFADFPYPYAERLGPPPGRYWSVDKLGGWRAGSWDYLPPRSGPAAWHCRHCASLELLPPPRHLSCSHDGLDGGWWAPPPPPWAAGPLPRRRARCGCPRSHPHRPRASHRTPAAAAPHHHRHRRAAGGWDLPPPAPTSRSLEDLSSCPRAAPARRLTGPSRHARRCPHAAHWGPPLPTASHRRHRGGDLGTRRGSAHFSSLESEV
Description: as §1, §2, §3

## O=C(NC(=S)N1CCCCC1c1cccnc1)c1ccc(F)cc1 (stereo not drawn) [CNS4]
GluN1/2AB receptors
  Peak current amplitude: –380.7 ± 36.61 pA
GluN1/2A NMDA receptors; absence of glycine, presence of CNS4, n = 6(3)
  100 μM glutamate induced relative current amplitude (glutamate efficacy): 0.04 ± 0.02 fold
GluN1/2A NMDA receptors; in the presence of 30 μM glycine and 30 μM CNS4, n = 9 (3)
  Glutamate efficacy: 297.8 ± 71.06 fold
GluN1/2A NMDA receptors; with 30 μM CNS4, 100 μM glutamate constant, relative to 1 μM glycine, average ± SEM, p = .19
  Glycine efficacy: relative fold change in current at highest glycine concentration: 2.59 ± 0.36 fold
GluN1/2A NMDA receptors; with 30 μM CNS4, 100 μM glycine constant, relative to 1 μM glutamate, p = .2898
  Glutamate efficacy: relative fold change in current at highest glutamate concentration: 2.95 ± 0.45 fold
GluN1/2D NMDA receptors; 30 μM CNS4
  Effect on glutamate efficacy with vs without CNS4 (insignificant): 0.8 fold
GluN1/2D NMDA receptors; 30 μM CNS4, 10 μM glycine
  Increase in glycine efficacy with vs without CNS4: 1.89 fold and 1.9 fold
GluN1/2D NMDA receptors; with 30 μM CNS4, 10 μM glycine, 100 μM glutamate constant, relative to 100 nM glycine, p = .0014
  Glycine efficacy: relative fold change in current at highest glycine concentration: 2.04 ± 0.19 fold
GluN1/2D NMDA receptors; with 30 μM CNS4, 100 μM glycine constant, relative to 100 nM glutamate, p = .1735
  Glutamate efficacy: relative fold change in current at highest glutamate concentration: 6.90 ± 0.62 fold
